Assay results taken from patent US20120238606A1, “[…] AMINE SALTS, PREPARATION METHOD AND USE THEREOF” (JIANGSU HANS PHA[…] CO., LTD., priority 2009, published 2012).

Legend:
[1] = tested on: angiotensin II-induced hypertensive rats; test: Effect on blood pressure in angiotensin II-induced hypertensive rats; format: in vivo, Sprague-Dawley rats; conditions: male SD rats, single equimolar dose ig (0.11 mg/kg example 1; 0.123 mg/kg example 2) in 0.5% methyl cellulose, AII 100 ng/kg iv again after 24 hours, Mean±S.E.
Protocol: The effect of compounds of the present invention on blood pressure in angiotensin II-induced hypertensive rats was investigated.
Male Sprague-Dawley rats (9-11 weeks old, CLEA Japan, Inc.) were anesthetized by pentobarbital solution (50 mg/kg, ip.) and prepared for surgery. The surgery procedure was as follows: made an incision through the skin on the abdomen and abdominal wall, separated the aorta and vein from the vena cava, occluded blood flow to allow introduction of a polyethylene (PE) tube filled with normal saline containing heparin (200 U/mL) into the vessel, passed the PE tube through the subcutaneous slits, and fixed the PE tube at the back of the neck. After recovery period, the rats were induced hypertension by intravenous administration of 100 ng/kg angiotensin II (AII). The PE tube was combined with a pressure transducer coupled to a blood pressure monitor amplifier (2238, NEC San-ei Instruments). The animals were enrolled based on average systolic blood pressure over 24 hours. All the animals with average systolic blood pressure less than 140 mmHg were excluded from this study, and the others were divided into 2 groups. […] The rats were injected intravenously AII again after 24 hours, and their blood pressure were measured by the monitor. The rat blood pressure inhibition ratios after dosing were calculated. […] The results were expressed as Mean±S.E. (Table 1).

[2] = tested on: angiotensin II-induced hypertensive dogs; test: Effect on blood pressure in angiotensin II-induced hypertensive dogs; format: in vivo; conditions: male Beagle dogs, equimolar dose ig (1.10 mg/kg example 1; 1.23 mg/kg example 2) in 0.5% methyl cellulose, mean±S.E.
Protocol: The effect of compounds of the present invention on blood pressure in angiotensin II-induced hypertensive dogs was investigated.
In this study, male Beagle dogs (weighting 12.0-14.7 kg, KITAYAMA LABES, CO., LTD.) were employed. The dogs were anesthetized by pentobarbital solution (50 mg/kg, ip) and prepared for surgery. The surgery procedure was as follows: made an endotracheal intubation for controlling the breathing, shaved the regions of femoral and back of the neck, fixed the dogs at the dorsal position, used isodine solution (MEIJI SEIKA KAISHA, LTD.) to sterilize the skins, made an incision through the skin on the right femoral region, separated the arteria femoralis, occluded blood flow to allow introduction of a mirror catheter (5 F, MILLER INDUSTRIES) and polyurethane tube into the aorta and vein, respectively, passed the tubes through the subcutaneous slits and fixed the tubes at the back, closed the wall and sutured the skin, and injected intramuscularly the penicillin G potassium (MEIJI SEIKA KAISHA, LTD., 40,000 units) for sterilization. For post-operative care, animals were administered 40,000 units penicillin G potassium intramuscularly once daily for 3 days. There was a recovery period before study ongoing.
The animals were singly housed in a small metabolic cage and fasted during the experiment. The mirror catheter was linked to a transducer unit (MILLER INDUSTRIES). Through a DC amplifier (N4777, NEC San-ei Instruments) and a blood pressure monitor amplifier (N4441, NEC San-ei Instruments), the blood pressure was recorded by a recorder (RECTI-HORIZ 8 K, NEC San-Ei Instruments). In order to establish a hypertension model, the dogs were injected intravenously 100 ng/kg AII for 3 or 4 times before dosing test articles. The test articles were an equal molar dose suspended in 0.5% methyl cellulose, and the dosing volume for all animals was 2 mL/kg. After administration, the blood pressure was measured by the monitor. The dog blood pressure inhibition ratios after dosing were calculated, and the results were expressed as mean±S.E. (Table 2).

SMILES	Inhibition ratios (%) (blood pressure inhibition ratio after dosing) [1]	Inhibition ratios (%) 10 hr post dosing [2]	Inhibition ratios (%) 24 hr post dosing [2]
CCOc1nc2cccc(C(=O)O)c2n1Cc1ccc(-c2ccccc2-c2noc(=O)[nH]2)cc1.C[N+](C)(C)CCO [Product of example 2, Azilsartan choline]	54.3 ± 5.1%	79.3 ± 8.6%	59.5 ± 6.3%
CCOc1nc2cccc(C(=O)O)c2n1Cc1ccc(-c2ccccc2-c2noc(=O)[nH]2)cc1.NCCO [Product of example 1, Azilsartan ethanolamine]	57.4 ± 6.7%	82.7 ± 7.3%	61.6 ± 4.8%
